Assay results: patent publication US5466861A, “Bridged bicyclic aromatic compounds and their use in modulating gene expression of retinoid receptors” (SRI International, priority 1992, dated 1995)

Experiments:
Assay type in all cases: cell-based
[1] = tested on: CRBPII-RARE, activated only by RXR homodimers; assay: Transient transfection CAT reporter assay, CRBPII-RARE; conditions: CV-1 cells; retinoids 7 and 20 at 5×10^-7 M
Description: (§1) To carry out the analysis, four different reporter constructs were prepared carrying the aforementioned gene, followed by cotransfection with RARα, RARβ, or RXRα, or with RXRα and RARα together. […] CV- 1 cells or HEP G2 cells were grown in DME medium supplemented with 10% fetal calf serum. Cells were plated at 1.0×10^5 per well in a 24-well plate 16-24 hours before transfection. In general, 100 ng of reporter plasmid, 150 ng of β-galactosidase expression vector (pCH110, Pharmacia), and variable amounts of receptor expression vector were mixed with carrier DNA (pBluescript) to 1,000 ng of total DNA per well. […] The retinoids 7 and 20 were analyzed at a concentration of 5×10^-7 M.

RXR (RXRα) = biological target: T1, RXR (RXRα) (Homo sapiens, UniProt P19793); assay: TREpal-tk-reporter gene transient transfection assay with RXR expression vector; conditions: for activity on TREpal-tk-reporter with RXR at 10^-7 M / activity on TREpal-tk-reporter with RXR at 10^-8 M / activity with RXR on TREpal-tk-reporter, preliminary evaluation: CV-1 cells; for activity with RXR on TREpal-tk-reporter, preliminary evaluation: RXR expression vector cotransfected; for activation of RXRα (overall conclusion): from TREpal and CRBPII reporter results
T1 construct: homodimer readout
T1 sequence (P19793 1-462): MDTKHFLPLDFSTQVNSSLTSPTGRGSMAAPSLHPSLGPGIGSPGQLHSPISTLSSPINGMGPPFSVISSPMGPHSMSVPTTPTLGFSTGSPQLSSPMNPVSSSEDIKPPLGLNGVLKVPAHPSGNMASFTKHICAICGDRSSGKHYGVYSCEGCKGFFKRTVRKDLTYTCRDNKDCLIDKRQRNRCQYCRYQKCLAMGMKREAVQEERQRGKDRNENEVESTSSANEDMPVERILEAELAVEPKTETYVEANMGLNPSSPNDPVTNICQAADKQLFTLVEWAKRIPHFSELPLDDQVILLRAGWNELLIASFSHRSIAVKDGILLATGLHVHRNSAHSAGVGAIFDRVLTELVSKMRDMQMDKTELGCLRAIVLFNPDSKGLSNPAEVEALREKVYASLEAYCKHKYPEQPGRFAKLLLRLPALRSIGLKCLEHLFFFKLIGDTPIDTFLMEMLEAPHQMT
Excerpt: The TREpal-tk-reporter gene was use in the transient transfection assay of the preceding example to evaluate compounds 7 and 20 for induction of RXR activity specifically. The TREpal represents a response element that is activated by both RAR/RXR heterodimers and RXR homodimers (X-K. Zhang et al., Nature 358:587 (1992)).

[2] = tested on: RARβ2 gene promoter RARE (βRARE); assay: Transient transfection CAT reporter assay, βRARE; conditions: CV-1 cells; 5×10^-7 M
Description: (§2) To carry out the analysis, four different reporter constructs were prepared carrying the aforementioned gene, followed by cotransfection with RARα, RARβ, or RXRα, or with RXRα and RARα together. […] CV- 1 cells or HEP G2 cells were grown in DME medium supplemented with 10% fetal calf serum. Cells were plated at 1.0×10^5 per well in a 24-well plate 16-24 hours before transfection. In general, 100 ng of reporter plasmid, 150 ng of β-galactosidase expression vector (pCH110, Pharmacia), and variable amounts of receptor expression vector were mixed with carrier DNA (pBluescript) to 1,000 ng of total DNA per well. Chloramphenicol acetyl transferase (CAT) activity was normalized for transfection efficiency by the corresponding β-galactosidase activity as described by M. Pfahl et al., /Methods in Enzymology 153:256 (1990).

[3] = tested on: CRBPI gene RARE, bound and activated by RAR/RXR heterodimers; assay: Transient transfection CAT reporter assay, CRBPI-RARE; conditions: CV-1 cells; retinoids 7 and 20 at 5×10^-7 M
Description: as §1

RXR = assay: Transient transfection reporter assay in other cell lines incl. Hep G2; conditions: various other cell lines, including Hep G2 cells (particular high response)
Description: as §2

Structure (SMILES) | activation of CRBPII-RARE reporter (CAT activity) [1] | activity on TREpal-tk-reporter with RXR at 10^-7 M (RXR (RXRα)) | activity on TREpal-tk-reporter with RXR at 10^-8 M (RXR (RXRα)) | activity with RXR on TREpal-tk-reporter, preliminary evaluation (RXR (RXRα)) | activation of RXRα (overall conclusion) (RXR (RXRα)) | activation of βRARE reporter (CAT activity) [2] | activation of CRBPI-RARE reporter (CAT activity) [3] | RXR-specific activation in other cell lines (RXR)
CC1(C)CCC(C)(C)c2cc(C3(c4ccc(C(=O)O)cc4)SCCS3)ccc21 [Compound 7, [2-(5,6,7,8-Tetrahydro-5,5,8,8-tetramethyl-2-naphthalenyl)-2-(4-carboxyphenyl)]-1,3-dithiolane] | strong activators | activities similar to 9-cis-retinoic acid | neither of the active compounds revealed activity | indicated activity with RXR | effective activators | slightly activated | no response | 
CC(C)=C(c1ccc(C(=O)O)cc1)c1ccc2c(c1)C(C)(C)CCC2(C)C [Compound 20, 4-[1-(5,6,7,8-Tetrahydro-5,5,8,8-tetramethyl-2-naphthalenyl)-2-methyl-1-propenyl]benzoic acid] | strong activators | activities similar to 9-cis-retinoic acid | neither of the active compounds revealed activity | indicated activity with RXR | effective activators | slightly activated | no response | significant and RXR-specific activation
